Measured values: US11952368B2, “FAPI dimer compound, FAPI dimer-based positron emission tomography (PET) imaging agent for tumor diagnosis, and preparation method and use thereof” (XIAMEN UNIVERSITY, priority 2021, dated 2024)

Columns and labels:
[1] = Distribution, dosimetry and safety in healthy volunteers (PET/CT, OLINDA/EXM); format: in vivo, human
Experimental: This experiment was approved by the Clinical Research Ethics Committee of the First Affiliated Hospital of Xiamen University, and all subjects signed a written informed consent form. A dose of ^68Ga-2PEG(3)-FAPI-dimer for intravenous injection (1.8 MBq to 2.2 MBq [0.05 mCi to 0.06 mCi]/kg) was calculated according to a body weight of a subject. Data were acquired using a hybrid PET/CT scanner (Discovery MI, GE Healthcare, Milwaukee, WI, USA) at 10 min, 30 min, 60 min, and 180 min after intravenous injection. A maximum standard uptake value (SUVmax) was automatically calculated with ROIs drawn on a transaxial image. Safety data, including vital signs (blood pressure, pulse, respiratory rate, and body temperature) and adverse events, were acquired 4 h before and after the ^68Ga-2PEG(3)-FAPI-dimer was injected. […] The time-activity curve fitting and subsequent dose calculation were conducted using OLINDA/EXM v.1.1.

[2] = Stability test: incubation in PBS or FBS, radiochemical purity by HPLC; format: in vitro ADME; details: 37° C., 1 h, 2 h, and 4 h
Experimental: (§1) 20 μL of a solution of the ^68Ga-2PEG(3)-FAPI-dimer (3.7 MBq activity/20 μL) prepared in Example 1 (with normal saline (NS) as a solvent) was taken and added to a centrifuge tube with 100 μL of FBS, and incubated at 37° C. for 1 h, 2 h, and 4 h to obtain an FBS co-incubation solution; 20 μL of the FBS co-incubation solution was taken, 40 μL of acetonitrile was added for protein precipitation, and a resulting mixture was filtered through a 0.22 μm needle filter membrane; and a radiochemical purity was analyzed through HPLC.
as §1, with “NS” for “normal saline (NS)”, “PBS (pH=7.4),” for “FBS,”, “a PBS” for “an FBS”, “PBS” for “FBS”, “taken” for “taken, 40 μL of acetonitrile was added for protein precipitation,”, “and” for “and a resulting mixture was”

[3] = system: FAP-expressing CAFs; assay: Cellular uptake and cellular uptake blockade in CAFs; format: cell-based, human
Experimental: A human HCC cell line Huh7 was purchased from the National Experimental Cell Resource Sharing Platform, China. CAFs were extracted from a surgical specimen of an HCC patient.
After the CAFs were verified as cells with high FAP expression, the next experiment was conducted. […]
FAP-expressing CAFs were inoculated in a 24-well plate and cultivated with a 10% (volume fraction) FBS-containing 1640 medium for 48 h before the experiment until a cell density was about 80% to 90%; the medium was changed to an FBS-free 1640 medium; and the ^68Ga-2PEG(3)-FAPI-dimer, ^68Ga-FAPI-46, or ^68Ga-2PEG(3)-FAPI-dimer+11.3 nmol FAPI-46 (for the blocking experiment) was added to the 24-well plate and incubated, with predetermined intervals of 10 min, 30 min, 60 min, 90 min, and 120 min. […] A half-inhibitory concentration (IC50s) was calculated by using GraphPad Prism to fit data through nonlinear regression. […]

[4] = three healthy volunteers, i.v., OLINDA/EXM

CN(CCCN1CCN(C(=O)COCCOCCOCCNC(=O)CCC(=O)N[C@@H](CCCCNC(=O)CN2CCN(CC(=O)[O-])CCN(CC(=O)[O-])CCN(CC(=O)[O-])CC2)C(=O)NCCOCCOCCOCC(=O)N2CCN(CCCN(C)c3ccc4nccc(C(=O)NCC(=O)N5CC(F)(F)C[C@H]5C#N)c4c3)CC2)CC1)c1ccc2nccc(C(=O)NCC(=O)N3CC(F)(F)C[C@H]3C#N)c2c1.[68Ga+3] [^68Ga-2PEG(3)-FAPI-dimer]
discomfort symptoms after injection (vital signs, adverse events) ([1]; i.v. 1.8 MBq to 2.2 MBq/kg, 4 h before and after injection): did not undergo any discomfort symptoms | Average value, Adrenal gland (dosimetry) [1, 4]: 7.98E−05 mSv/MBq | Average value, Ascending colon wall (dosimetry) [1, 4]: 2.79E−05 mSv/MBq | Average value, Bladder wall (dosimetry) [1, 4]: 1.04E−03 mSv/MBq | Average value, Brain (dosimetry) [1, 4]: 3.16E−05 mSv/MBq | Average value, Breast (dosimetry) [1, 4]: 6.36E−05 mSv/MBq | Average value, Descending colon wall (dosimetry) [1, 4]: 9.22E−04 mSv/MBq | Average value, Effective dose [1, 4]: 1.19E−02 mSv/MBq | Average value, Effective dose equivalent [1, 4]: 1.69E−02 mSv/MBq | Average value, Kidney (dosimetry) [1, 4]: 1.01E−04 mSv/MBq | Average value, Liver (dosimetry) [1, 4]: 1.65E−03 mSv/MBq | Average value, Lung (dosimetry) [1, 4]: 1.36E−03 mSv/MBq | Average value, Muscle (dosimetry) [1, 4]: 4.19E−05 mSv/MBq | Average value, Osteoblast (dosimetry) [1, 4]: 6.47E−05 mSv/MBq | Average value, Ovary (dosimetry) [1, 4]: 5.94E−04 mSv/MBq | Average value, Pancreas (dosimetry) [1, 4]: 7.61E−04 mSv/MBq | Average value, Red bone marrow (dosimetry) [1, 4]: 1.12E−03 mSv/MBq | Average value, Skin (dosimetry) [1, 4]: 1.22E−05 mSv/MBq | Average value, Small intestine (dosimetry) [1, 4]: 5.18E−05 mSv/MBq | Average value, Spleen (dosimetry) [1, 4]: 1.58E−04 mSv/MBq | Average value, Stomach wall (dosimetry) [1, 4]: 7.12E−04 mSv/MBq | Average value, Thymus (dosimetry) [1, 4]: 9.64E−06 mSv/MBq | Average value, Thyroid (dosimetry) [1, 4]: 3.11E−03 mSv/MBq | Average value, Uterus (dosimetry) [1, 4]: 1.27E−05 mSv/MBq | radiochemical purity after incubation in FBS ([2]; FBS): greater than 90% | radiochemical purity after incubation in PBS ([2]; PBS (pH=7.4)): greater than 90% | cell uptake blockade: binding to FAP blocked by FAPI-46 precursor ([3]; +11.3 nmol FAPI-46): can significantly block | absorption value relative to ^68Ga-FAPI-46 monomer in CAFs ([3]; incubation 10 min to 120 min): about twice
